# Values joined by “and” are separate entries in the source; they are usually repeats but may differ in a detail not shown here. Equal values may be shown once. Read-outs that look alike come from different tables or passages of the source.
# Legend:
# [1] = test system: IRF7 5'UTR firefly luciferase reporter in HEK293T cells; details: for Reference vs IRF7 (Final data, Fig. 1E): 1/Result, relative to DMSO; for LONG (summary - All), normalized to DMSO / Long: Normalized to average DMSO: Long reporter; for LONG (summary - All), normalized to DMSO / SHORT (summary - All), normalized to DMSO: individual replicates, outliers excluded, DMSO = 1; for SHORT (summary - All), normalized to DMSO: Short reporter; for average ( long vs short ratio): summary - All; for Long: Normalized to average DMSO: data section, GFP-corrected, per experiment;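 for all read-outs here: luciferase signal corrected by a co-transfected GFP reporter for transfection efficiency, read after overnight compound exposure, with Long and Short reporters differing in 5'UTR length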
# [2] = test system: CUG/GUG vs AUG start codon luciferase reporters in HEK293T cells; test: Near-cognate AUG starting codon fidelity reporter assay (GUG, CUG vs AUG); type: cell-based; details: for CUG vs AUG (%): CUG start codon reporter relative to AUG reporter (AUG = 100); for CUG vs AUG (%) / GUG vs AUG (%): single-experiment calculation; for GUG vs AUG (%): GUG start codon reporter relative to AUG reporter (AUG = 100); for average CUG and GUG / average CUG and GUG relative to DMSO / CUG Average / GUG Average: NUG experiment; for CUG Average: CUG vs AUG reporter; for GUG Average: GUG vs AUG reporter; for NUG (Final data, Fig. 1E): average CUG and GUG relative to DMSO, 20 µM overnight; for GUG vs AUG data (%): individual repeat; for GUG vs AUG (%) Average: summary average of repeats, DMSO control average […]; for calculation: CUG (AUG = 100) / calculation: GUG (AUG = 100): raw data calculation of one experiment, GFP normalized, AUG set to 100, compound marked (20)
# eIF1A without NTT = target: T1, eIF1A without NTT (Homo sapiens, UniProt P47813); test: Fluorescence binding assay with NTT-truncated eIF1A
# T1 construct: His-bdSUMO (cleaved yes); made in house; host or cells: E. coli (BL-21)
# T1 sequence (P47813 31-144 limits assumed): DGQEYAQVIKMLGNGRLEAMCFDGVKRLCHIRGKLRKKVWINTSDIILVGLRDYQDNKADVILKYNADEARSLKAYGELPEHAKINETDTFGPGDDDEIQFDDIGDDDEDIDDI
# [3] = test system: uORF-bearing 5'UTR firefly reporters in HEK293T cells; test: uORF reinitiation / leaky scanning firefly reporters; details: for ff/rl, 46 leaky reporter / ff/rl, 46 reporter / ff/rl, normal reporter: single replicates, not normalized to DMSO
# From the text: (M) The reference and uORF-bearing reporters were transfected to HEK293T cells together with RL, which served to normalize translation efficiency. The reporter activities are represented as firefly vs RL; n ≥3 independent biological replicates, error bars represent SEM. *P < 0.05, **P < 0.01, Student t test. (N) Firefly Reporters (J) were transfected to HEK293T cells together with normalizing RL. […] Results are represented as firefly vs. RL normalized to DMSO in each biological replicate; n = 4, error bars represent SEM. *P < 0.05, **P < 0.01, Student t test.
# In the first and second, we inserted an out-of-frame uAUG 46 or 95 nucleotides before the main ORF, respectively, followed by a downstream stop codon generating an uORF of 10 amino acids. In these constructs, the translation from the main ORF could be either by reinitiation or leaky scanning. In the third construct, this out of frame uAUG lacks a stop codon, causing initiation from the main ORF to exclusively occur via leaky scanning (Fig. 4L). These reporters were transfected into HEK293T cells together with RL luciferase reporter for normalizing transfection efficiency. […] We next examined these reporters in the presence of 1Ais.
# [4] = compound at 20uM (summary head)
compound,measurement,setting,value
CCOC(=O)c1ccsc1NC(=O)CN1C(=O)NC(C)(c2cccc3ccccc23)C1=O (stereo not shown) [1Ai-1861],"Reference vs IRF7 (Final data, Fig. 1E)",[1]; 20 µM,1.411
same,"LONG (summary - All), normalized to DMSO",[1]; 20 µM,0.0542 and 0.33 and 0.67 and 0.24
same,"SHORT (summary - All), normalized to DMSO",[1]; 20 µM,0.28 and 0.35 and 0.52 and 0.68
same,average ( long vs short ratio),[1]; 20 µM,0.709
same,CUG vs AUG (%),[2]; [4],14.0136%
same,GUG vs AUG (%),[2]; [4],2.535%
same,average CUG and GUG,[2],6.257
same,average CUG and GUG relative to DMSO,[2],1.387
same,CUG Average,[2],9.413
same,GUG Average,[2],3.101
same,"NUG (Final data, Fig. 1E)",[2],1.387
same,GUG vs AUG data (%),[2]; compound at 20uM,2.64% and 2.15% and 3.17% and 4.44%
same,GUG vs AUG (%) Average,[2]; compound at 20uM,3.10%
COc1ccc(C=C2CSc3ccc(Cl)cc3C2=O)cc1O [1Ai-5175],"Reference vs IRF7 (Final data, Fig. 1E)",[1]; 20 µM,2.369
same,"LONG (summary - All), normalized to DMSO",[1]; 5 µM,0.41 and 0.69 and 0.67
same,"SHORT (summary - All), normalized to DMSO",[1]; 5 µM,1.04 and 2.35 and 0.82
same,Long: Normalized to average DMSO,[1]; 5 µM,0.4067 and 0.6939 and 0.6743
same,average ( long vs short ratio),[1]; 5 µM,0.422
same,CUG vs AUG (%),[2]; compound at 5uM (summary head),10.1681% and 8.512%
same,GUG vs AUG (%),[2]; compound at 5uM (summary head),2.289% and 2.982%
same,average CUG and GUG,[2],5.826
same,average CUG and GUG relative to DMSO,[2],1.2918
same,CUG Average,[2],9.011
same,GUG Average,[2],2.642
same,"NUG (Final data, Fig. 1E)",[2],1.292
same,GUG vs AUG data (%),[2]; compound at 5uM,2.76% and 3.14% and 2.85% and 1.82%
same,GUG vs AUG (%) Average,[2]; compound at 5uM,2.64%
same,calculation: CUG (AUG = 100),[2],4.394
same,calculation: GUG (AUG = 100),[2],1.456
same,binding to NTT-truncated eIF1A,eIF1A without NTT,no binding
same,NTT truncation IC50,eIF1A without NTT; eIF1A without NTT,No binding
same,"IC50 concentration (µM), NTT truncation","eIF1A without NTT; summary table, fluorescence binding assay",No binding
same,effect on uORF / leaky scanning reporters,"[3]; 20uM (1Ai-5175 at 5uM), overnight",inhibit the short-distance reinitiation
same,"normalized to DMSO, 46 leaky, average","[3]; 46 leaky reporter, average of biological repeats",0.842
same,"normalized to DMSO, 46 leaky, biological repeats","[3]; 46 leaky reporter, biological repeats 1-4",0.696 and 0.690 and 0.975 and 1.007
same,"normalized to DMSO, 46 leaky","[3]; 46 leaky reporter, single replicates 1-8 (two dates)",0.670 and 0.722 and 0.651 and 0.728 and 1.015 and 0.935 and 0.924 and 1.090
same,"normalized to DMSO, -46, average","[3]; -46 reporter, average of biological repeats",0.583
same,"normalized to DMSO, -46, biological repeats","[3]; -46 reporter, biological repeats 1-4",0.455 and 0.565 and 0.613 and 0.698
same,"normalized to DMSO, -46","[3]; -46 reporter, single replicates 1-8 (two dates)",0.448 and 0.461 and 0.490 and 0.641 and 0.602 and 0.625 and 0.452 and 0.944
same,"ff/rl, 46 leaky reporter",[3]; experiment 12.3.24,2.64E-02 and 2.84E-02 and 2.56E-02 and 2.87E-02
same,"ff/rl, 46 reporter",[3]; experiment 12.3.24,9.52E-02 and 9.80E-02 and 1.04E-01 and 1.36E-01
same,"ff/rl, normal reporter",[3]; experiment 12.3.24,3.34E-01 and 1.68E-01 and 2.05E-01 and 1.98E-01
same,"ff/rl, 46 leaky reporter",[3]; experiment 13.03.24,4.57E-03 and 4.21E-03 and 4.16E-03 and 4.91E-03
same,"ff/rl, 46 reporter",[3]; experiment 13.03.24,1.39E-02 and 1.45E-02 and 1.05E-02 and 2.19E-02
same,"ff/rl, normal reporter",[3]; experiment 13.03.24,4.32E-02 and 3.04E-02 and 3.07E-02 and 3.75E-02
same,"reporter activity norm to DMSO, minus46","[3]; minus46 reporter, 95nt from uORF to main ORF experiment, Figure 4N source data, replicate experiments, DMSO = 1",0.1896 and 0.185
same,"95nt from uORF to main ORF experiment, minus46, average (DMSO = 1)","[3]; minus46 reporter, average",0.497
same,"reporter activity norm to DMSO, minus 95","[3]; minus 95 (nt) reporter, 95nt from uORF to main ORF experiment, Figure 4N source data, replicate experiments, DMSO = 1",0.3264 and 0.388
same,"95nt from uORF to main ORF experiment, minus 95nt, average (DMSO = 1)","[3]; minus 95nt reporter, average",0.9478
same,"reporter activity norm to DMSO, ref","[3]; ref reporter, 95nt from uORF to main ORF experiment, Figure 4N source data, replicate experiments, DMSO = 1",0.381 and 0.3727
same,"95nt from uORF to main ORF experiment, ref, average (DMSO = 1)","[3]; ref reporter, average",0.3768
same,"normalized to DMSO, refference, average","[3]; refference reporter, average of biological repeats",0.842
same,"normalized to DMSO, refference, biological repeats","[3]; refference reporter, biological repeats 1-4",0.886 and 0.712 and 0.917 and 0.851
same,"normalized to DMSO, refference","[3]; refference reporter, single replicates 1-8 (two dates)",1.178 and 0.594 and 0.724 and 0.700 and 1.078 and 0.757 and 0.766 and 0.936
same,"normalized to DMSO, single replicates","[3]; reporter 46, experiment 12.3.24",4.48E-01 and 4.61E-01 and 4.90E-01 and 6.41E-01
same,"normalize to DMSO, average","[3]; reporter 46, experiment 12.3.24, DMSO = 1",0.51
same,"normalized to DMSO, single replicates","[3]; reporter 46, experiment 13.3.24",6.02E-01 and 6.25E-01 and 4.52E-01 and 9.44E-01
same,"normalize to DMSO, average","[3]; reporter 46, experiment 13.3.24, DMSO = 1",0.6556
same,"normalize to DMSO, average","[3]; reporter 46 leaky, experiment 12.3.24, DMSO = 1",0.6928
same,"normalized to DMSO, single replicates","[3]; reporter 46 leaky, experiment 13.3.24",1.01E+00 and 9.35E-01 and 9.24E-01 and 1.09E+00
same,"normalize to DMSO, average","[3]; reporter 46 leaky, experiment 13.3.24, DMSO = 1",0.991
same,"normalized to DMSO, single replicates","[3]; reporter normal (refference), experiment 12.3.24",1.18E+00 and 5.94E-01 and 7.24E-01 and 7.00E-01
same,"normalized to DMSO, single replicates","[3]; reporter normal (refference), experiment 13.3.24",1.08E+00 and 7.57E-01 and 7.66E-01 and 9.36E-01
same,"normalize to DMSO, average","[3]; reporter refference, experiment 12.3.24, DMSO = 1",0.7988
same,"normalize to DMSO, average","[3]; reporter refference, experiment 13.3.24, DMSO = 1",0.8842
same,inhibitory effect with extended (long) reinitiation distance,[3]; uORF to main ORF distance extended by 49 nt,lost
Cn1c(=O)c2ccccc2n2c(CNC(c3ccc4c(c3)CCC4)c3cccs3)nnc12 (stereo not shown) [1Ai-7688],"Reference vs IRF7 (Final data, Fig. 1E)",[1]; 20 µM,1.509
same,"LONG (summary - All), normalized to DMSO",[1]; 20 µM,0.23 and 0.0442 and 0.78 and 0.63 and 1.12 and 0.61
same,"SHORT (summary - All), normalized to DMSO",[1]; 20 µM,0.19 and 0.05 and 1.25 and 0.79 and 1.33 and 1.55
same,"Long 5'UTR reporter luciferase activity, normalized to DMSO (=1), single replicates","[1]; compound at 20 µM, left data block (Long), source data of Fig 1C",0.2324 and 0.04416 and 0.7839 and 0.6346 and 1.115 and 0.6102
same,average ( long vs short ratio),[1]; 20 µM,0.663
same,CUG vs AUG (%),[2]; [4],6.15%
same,GUG vs AUG (%),[2]; [4],1.391%
same,average CUG and GUG,[2],3.434
same,average CUG and GUG relative to DMSO,[2],0.7613
same,CUG Average,[2],5.347
same,GUG Average,[2],1.52
same,"NUG (Final data, Fig. 1E)",[2],0.761
same,GUG vs AUG data (%),[2]; compound at 20uM,1.96% and 1.30% and 1.49% and 1.33%
same,GUG vs AUG (%) Average,[2]; compound at 20uM,1.52%
same,calculation: CUG (AUG = 100),[2],4.522
same,calculation: GUG (AUG = 100),[2],1.611
C=CCNC(=O)CN1CCN(Cc2nc3cc(-c4ccc(Cl)cc4)sc3c(=O)[nH]2)CC1 [1Ai-1524],"Reference vs IRF7 (Final data, Fig. 1E)",[1]; 20 µM,1.878
same,"LONG (summary - All), normalized to DMSO",[1]; 20 µM,0.62 and 0.21 and 0.43 and 0.52
same,"SHORT (summary - All), normalized to DMSO",[1]; 20 µM,0.50 and 0.66 and 0.41
same,average ( long vs short ratio),[1]; 20 µM,0.848
same,CUG vs AUG (%),[2]; [4],6.424%
same,GUG vs AUG (%),[2]; [4],0.742%
same,average CUG and GUG,[2],7.9532
same,average CUG and GUG relative to DMSO,[2],1.763
same,CUG Average,[2],12.0643
same,GUG Average,[2],3.842
same,"NUG (Final data, Fig. 1E)",[2],1.763
same,GUG vs AUG data (%),[2]; compound at 20uM,4.35% and 2.64% and 2.99% and 5.39%
same,GUG vs AUG (%) Average,[2]; compound at 20uM,3.84%
O=C(C=Cc1ccc(Cl)s1)Nc1cccc2ncccc12 [1Ai-4860],"Reference vs IRF7 (Final data, Fig. 1E)",[1]; 20 µM,1.848
same,"LONG (summary - All), normalized to DMSO",[1]; 20 µM,0.47 and 0.69 and 0.42 and 0.61
same,"SHORT (summary - All), normalized to DMSO",[1]; 20 µM,0.84 and 1.62 and 0.77
same,Long: Normalized to average DMSO,"[1]; 20 µM, includes values excluded as outliers",0.471 and 0.6925 and 0.4245 and 0.6135
same,average ( long vs short ratio),[1]; 20 µM,0.541
same,CUG vs AUG (%),[2]; [4],3.6331%
same,GUG vs AUG (%),[2]; [4],0.9953%
same,average CUG and GUG,[2],2.314
same,average CUG and GUG relative to DMSO,[2],0.5131
same,CUG Average,[2],3.6331
same,GUG Average,[2],0.9953
same,"NUG (Final data, Fig. 1E)",[2],0.513
same,GUG vs AUG data (%),[2]; compound at 20uM,1.48% and 1.00%
same,GUG vs AUG (%) Average,[2]; compound at 20uM,1.24%
